PubChem BioAssay (NCI)
Where “and” joins values, the source holds several entries; their conditions need not be identical. Equal entries are not always repeated.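 96-well plates; 48 h exposure; 5 concentrations. Endpoints by linear interpolation between flanking doses. Not reached: highest tested concentration assigned. GI50 marks 50% less growth. TGI denotes the concentration required for complete inhibition of growth.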

Experiments:
Experiment in all cases: DTP human tumour cell line panel, 48 h
[1] = tested on: HL-60(TB) leukemia
[2] = tested on: HT29 colon
[3] = tested on: SW-620 colon
[4] = tested on: SN12C renal
[5] = tested on: SK-MEL-2 melanoma
[6] = tested on: IGROV1 ovarian
[7] = tested on: OVCAR-4 ovarian
[8] = tested on: HOP-62 NSCLC
[9] = tested on: NCI-H460 lung
[10] = tested on: SNB-78 CNS
[11] = tested on: HOP-18 NSCLC

CC1=C(/C=C/C(C)=C/C=C/C(C)=C/C=N/NC(=S)NC(=S)N/N=C/C=C(C)/C=C/C=C(C)/C=C/C2=C(C)CCCC2(C)C)C(C)(C)CCC1
GI50 [1]: 1770 nM and 1000 nM
TGI [1]: 9.22 µM and 4.3 µM
GI50 [2]: 1910 nM and 1070 nM
TGI [2]: 8.83 µM and 3.69 µM
GI50 [3]: 1440 nM and 860 nM
TGI [3]: 5.42 µM and 1.74 µM
GI50 [4]: 1560 nM and 1070 nM
TGI [4]: 6.34 µM and 3.32 µM
GI50 [5]: 5.79 µM and 1.82 µM
TGI [5]: 12.5 µM and 6.97 µM
GI50 [6]: 1330 nM and 943 nM
TGI [6]: 6.15 µM and 2.87 µM
GI50 [7]: 1740 nM and 1220 nM
TGI [7]: 7.84 µM and 5.4 µM
GI50 [8]: 3.84 µM and 2.42 µM
TGI [8]: 11.3 µM and 5 µM
GI50 [9]: 2350 nM and 1660 nM
TGI [9]: 8.68 µM and 6.36 µM

CCCC(C)n1c(C)nc2c1C(=O)c1ccccc1C2=O (centres undefined)
TGI [1]: > 100 µM
TGI [2]: > 100 µM
TGI [3]: > 100 µM
TGI [10]: > 100 µM
TGI [4]: > 100 µM
TGI [5]: 47.1 µM
TGI [6]: > 100 µM
TGI [7]: > 100 µM
TGI [8]: > 100 µM
TGI [9]: 16.8 µM

N#Cc1c(Br)n(C2OC(CO)C(O)C2O)c2ncnc(N)c12 (centres undefined)
GI50 [1]: 608 nM
TGI [1]: 2.59 µM
GI50 [2]: 885 nM
TGI [2]: > 36.2 µM
GI50 [3]: 740 nM
TGI [3]: 32.7 µM
GI50 [4]: 2690 nM
TGI [4]: > 100 µM
GI50 [5]: 5.3 µM
TGI [5]: 14.1 µM
GI50 [6]: 333 nM
TGI [6]: 1.76 µM
GI50 [7]: 2110 nM
TGI [7]: 71.8 µM
GI50 [8]: 4.09 µM
TGI [8]: > 100 µM
GI50 [9]: 574 nM
TGI [9]: 4.56 µM

CCC/C=C1\CCC(CN(C)C)C1=O (centres undefined)
TGI [1]: 31.5 µM
TGI [2]: 17.9 µM
TGI [3]: 11.6 µM
TGI [4]: 32.7 µM
TGI [5]: 29.7 µM
TGI [11]: 39 µM
TGI [6]: 34.4 µM
TGI [7]: 38.6 µM
TGI [8]: 29.2 µM
TGI [9]: > 63.2 µM

Cc1c(CCO)c(=O)n2c([nH]c3ccccc32)c1C#N
TGI [2]: > 100 µM
TGI [3]: > 100 µM
TGI [10]: > 100 µM
TGI [5]: > 100 µM
TGI [11]: > 100 µM
TGI [6]: > 100 µM
TGI [7]: > 100 µM
TGI [8]: > 100 µM
TGI [9]: 98.8 µM

Cn1c(=O)c(NC(=O)C(Cl)(Cl)Cl)nc2ccccc21
TGI [1]: > 100 µM
TGI [2]: > 100 µM
TGI [3]: > 100 µM
TGI [10]: > 100 µM
TGI [4]: > 100 µM
TGI [5]: > 100 µM
TGI [6]: > 100 µM
TGI [8]: > 100 µM
TGI [9]: > 100 µM

O=C(CSc1ncn[nH]1)C[P+](c1ccccc1)(c1ccccc1)c1ccccc1
TGI [1]: > 100 µM
TGI [3]: > 100 µM
TGI [10]: > 100 µM
TGI [4]: > 100 µM
TGI [5]: > 100 µM
TGI [6]: > 100 µM
TGI [7]: > 100 µM
TGI [8]: > 100 µM
TGI [9]: > 100 µM

COP(=O)(OC)C(NC(=O)C(F)(F)F)(c1ccccc1)C(F)(F)F (centres undefined)
TGI [1]: > 100 µM
TGI [2]: > 100 µM
TGI [3]: > 100 µM
TGI [4]: > 100 µM
TGI [5]: > 100 µM
TGI [11]: > 100 µM
TGI [6]: > 100 µM
TGI [7]: > 100 µM
TGI [8]: > 100 µM
TGI [9]: > 100 µM

CN(C)c1ccc(/C=C/c2ccc(/C=C/c3ccc(N(C)C)cc3)cc2)cc1
TGI [1]: > 100 µM
TGI [2]: > 100 µM
TGI [3]: > 100 µM
TGI [10]: > 100 µM
TGI [4]: > 100 µM
TGI [5]: > 100 µM
TGI [11]: > 100 µM
TGI [6]: > 100 µM
TGI [7]: > 100 µM
TGI [9]: > 100 µM

CC(C)N1CCN(Cc2ccc3c(NNC(=O)c4ccccc4)nc4cc(F)ccc4n23)CC1
GI50 [1]: 322 nM
TGI [1]: 1.43 µM
GI50 [2]: 673 nM
TGI [2]: 7.46 µM
GI50 [3]: 463 nM
TGI [3]: 2.12 µM
GI50 [4]: 529 nM
TGI [4]: 12.8 µM
GI50 [5]: 2.78 µM
TGI [5]: 20.8 µM
GI50 [6]: 406 nM
TGI [6]: 14.1 µM
GI50 [7]: 293 nM
TGI [7]: 7.71 µM
GI50 [8]: 0.176 µM
TGI [8]: 13.7 µM
GI50 [9]: 128 nM
TGI [9]: 1.4 µM

CCN(Cc1ccc(F)cc1)c1ccc(CO)c(C)c1
GI50 [1]: 9860 nM
TGI [1]: 39.3 µM
GI50 [2]: 20700 nM
TGI [2]: 55.8 µM
GI50 [3]: 14500 nM
TGI [3]: 54.1 µM
GI50 [4]: 19300 nM
TGI [4]: > 82.6 µM
GI50 [5]: 7.58 µM
TGI [5]: 22.8 µM
GI50 [6]: 1250 nM
TGI [6]: 6.16 µM
GI50 [7]: 2460 nM
TGI [7]: 14.3 µM
GI50 [8]: 17.7 µM
TGI [8]: 39.1 µM
GI50 [9]: 11500 nM
TGI [9]: 32.3 µM

Nc1nc(N)c(C=Nc2ccc(Br)cc2)c(Nc2ccc(Br)cc2)n1
GI50 [1]: 15600 nM
TGI [1]: 49.2 µM
GI50 [2]: 5810 nM
TGI [2]: > 100 µM
GI50 [3]: 14100 nM
TGI [3]: 99.1 µM
GI50 [4]: 8190 nM
TGI [4]: 33.6 µM
GI50 [5]: 10.2 µM
TGI [5]: 23 µM
GI50 [6]: 8720 nM
TGI [6]: 46.2 µM
GI50 [7]: 10600 nM
TGI [7]: 25 µM
GI50 [8]: 10.5 µM
TGI [8]: 22.5 µM
GI50 [9]: 4390 nM
TGI [9]: 20.1 µM

COc1ccccc1C1=C(Nc2ccccc2)C(=O)NC1=O
GI50 [1]: > 25000 nM
TGI [1]: > 25 µM
GI50 [2]: > 25000 nM
TGI [2]: > 25 µM
GI50 [3]: > 25000 nM
TGI [3]: > 25 µM
GI50 [4]: > 25000 nM
TGI [4]: > 25 µM
GI50 [5]: > 25 µM
TGI [5]: > 25 µM
GI50 [6]: > 25000 nM
TGI [6]: > 25 µM
GI50 [7]: > 25000 nM
TGI [7]: > 25 µM
GI50 [8]: > 25 µM
TGI [8]: > 25 µM
GI50 [9]: > 25000 nM
TGI [9]: > 25 µM

Cc1cc(-c2ccccc2)nc(Nc2nc3ccccc3o2)n1
TGI [1]: > 100 µM
TGI [2]: > 100 µM
TGI [3]: > 100 µM
TGI [10]: > 100 µM
TGI [4]: > 100 µM
TGI [5]: > 100 µM
TGI [6]: > 100 µM
TGI [7]: > 100 µM
TGI [8]: > 100 µM
TGI [9]: > 100 µM

Cc1nc2c(o1)C(=Nc1ccccc1)c1ccccc1C2=O
TGI [1]: 66.1 µM
TGI [2]: 35.9 µM
TGI [3]: 23.2 µM
TGI [10]: 37.6 µM
TGI [4]: 22.8 µM
TGI [5]: 18.9 µM
TGI [11]: 18 µM
TGI [6]: 40.1 µM
TGI [8]: 28.1 µM
TGI [9]: 25.5 µM

COC(=O)C1C=CCON2CCc3c(n(C)c4ccccc34)C12 (centres undefined)
TGI [1]: > 100 µM
TGI [2]: > 100 µM
TGI [3]: > 100 µM
TGI [10]: > 100 µM
TGI [4]: > 100 µM
TGI [5]: > 100 µM
TGI [6]: > 100 µM
TGI [7]: > 100 µM
TGI [8]: > 100 µM
TGI [9]: > 100 µM

COC(=O)CCC1CCc2c(OC)ccc(OC)c2C1=O (centres undefined)
TGI [1]: > 100 µM
TGI [2]: > 100 µM
TGI [3]: > 100 µM
TGI [10]: > 100 µM
TGI [4]: > 100 µM
TGI [5]: > 100 µM
TGI [6]: > 100 µM
TGI [7]: > 100 µM
TGI [8]: > 100 µM
TGI [9]: > 100 µM

Clc1ccc(-c2nnc(-c3cccc4ccccc34)o2)cc1Cl
TGI [1]: > 100 µM
TGI [2]: > 100 µM
TGI [3]: > 100 µM
TGI [4]: > 100 µM
TGI [5]: > 100 µM
TGI [6]: 53.9 µM
TGI [7]: > 100 µM
TGI [8]: > 100 µM
TGI [9]: > 100 µM
